Test: xn = mol fraction of the nth substance listed
Conditions: Liquid, Bellows volumetry

CCCC [butane] + O=C=O
mass density [kg/m3]
Conditions | 280 K | 300 K | 320 K | 340 K | 360 K
3000 kPa, x2 = 0.2322 | 630.31 | – | – | – | –
5000 kPa, x2 = 0.2322 | 633.96 | – | 575.82 | – | –
5000 kPa, x2 = 0.4794 | 680.75 | 639.52 | – | – | –
5000 kPa, x2 = 0.715 | 743.91 | – | – | – | –
10000 kPa, x2 = 0.2322 | 642.11 | – | 589.62 | – | 527.83
10000 kPa, x2 = 0.4794 | 692.87 | 657.02 | 616.31 | 569.54 | 511.93
10000 kPa, x2 = 0.715 | 764.37 | – | 634.09 | – | –
20000 kPa, x2 = 0.2322 | 656.07 | – | 611.12 | – | 561.64
20000 kPa, x2 = 0.4794 | 712.84 | 682.52 | 650.15 | 616.43 | 580.87
20000 kPa, x2 = 0.715 | 794.78 | – | 700.42 | – | 589.3
30000 kPa, x2 = 0.2322 | 667.86 | – | 627.12 | – | 584.81
30000 kPa, x2 = 0.4794 | 728.81 | 701.65 | 674.04 | 645.49 | 616.95
30000 kPa, x2 = 0.715 | 817.62 | – | 738.09 | – | 653.81
40000 kPa, x2 = 0.2322 | 678.47 | – | 640.44 | – | 602.48
40000 kPa, x2 = 0.4794 | 742.52 | 717.56 | 692.66 | 667.35 | 642.35
40000 kPa, x2 = 0.715 | 836.27 | – | 765.65 | – | 694.03
50000 kPa, x2 = 0.2322 | 687.34 | – | 652.04 | – | 616.98
50000 kPa, x2 = 0.4794 | 754.67 | 731.07 | 708.18 | 685.08 | 662.49
50000 kPa, x2 = 0.715 | 852 | – | 787.84 | – | –
60000 kPa, x2 = 0.2322 | 695.74 | – | 662.33 | – | –
60000 kPa, x2 = 0.4794 | 764.81 | 742.9 | 721.35 | 700 | –
60000 kPa, x2 = 0.715 | 866.13 | – | 806.49 | – | –
70000 kPa, x2 = 0.2322 | 703.24 | – | 671.53 | – | –
70000 kPa, x2 = 0.4794 | 774.33 | 753.65 | 733.06 | 713.41 | –
70000 kPa, x2 = 0.715 | 878.47 | – | 822.63 | – | –
80000 kPa, x2 = 0.2322 | 710.1 | – | 679.91 | – | –
80000 kPa, x2 = 0.4794 | 783.23 | 763.35 | 744.07 | 724.94 | –
80000 kPa, x2 = 0.715 | 890.87 | – | 836.62 | – | –
90000 kPa, x2 = 0.2322 | 716.71 | – | 687.47 | – | –
90000 kPa, x2 = 0.4794 | 791.49 | 772.13 | 753.75 | 735.81 | –
90000 kPa, x2 = 0.715 | 901.14 | – | 849.86 | – | –
100000 kPa, x2 = 0.2322 | 723.23 | – | 694.73 | – | –
100000 kPa, x2 = 0.4794 | 798.9 | 780.58 | 762.74 | 745.33 | –
100000 kPa, x2 = 0.715 | 910.69 | – | 861.47 | – | –
120000 kPa, x2 = 0.2322 | 734.32 | – | 707.88 | – | –
120000 kPa, x2 = 0.4794 | 812.9 | 795.54 | 778.9 | 762.5 | –
120000 kPa, x2 = 0.715 | 928.62 | – | 882.45 | – | –
140000 kPa, x2 = 0.2322 | 744.8 | – | 719.63 | – | –
140000 kPa, x2 = 0.4794 | 825.4 | 809.12 | 793 | 777.74 | –
140000 kPa, x2 = 0.715 | 944.48 | – | 900.69 | – | –
160000 kPa, x2 = 0.2322 | 754.11 | – | 730.08 | – | –
160000 kPa, x2 = 0.4794 | 836.77 | 820.91 | 805.87 | 791.24 | –
160000 kPa, x2 = 0.715 | 958.48 | – | 917.22 | – | –
180000 kPa, x2 = 0.2322 | 762.53 | – | 739.97 | – | –
180000 kPa, x2 = 0.4794 | 847.4 | 832.12 | 817.41 | 803.57 | –
180000 kPa, x2 = 0.715 | 971.36 | – | 931.83 | – | –
200000 kPa, x2 = 0.2322 | 770.7 | – | 748.41 | – | –
200000 kPa, x2 = 0.4794 | 856.48 | 842.22 | 828.26 | 815.1 | –
200000 kPa, x2 = 0.715 | 983.53 | – | 945.52 | – | –

Source: the NIST ThermoML archive (doi:10.1016/j.jct.2010.11.012)
